Species: Rattus norvegicus
Experiment: Open TG-GATES - Regimen: Single
Assay type: toxicity, organism-based, Sprague-Dawley
Parameters: regimen Single, gender Male, age 6 weeks
Conditions: in vivo, po, 150 mg/kg, route gavage, dose level Middle; for APTT / Bas / Eos / Fbg / Hb / Ht / Lym / MCH / MCHC / MCV / Mono / Neu / PT / Plat / RBC / Ret / WBC: tissue Blood; for KIDNEY_L / KIDNEY_R / KIDNEY_TOTAL: tissue Kidney; for LIVER: tissue Liver; for A/G / ALP / ALT / AST / BUN / CRE / Ca / Cl / DBIL / GLC / IP / K / LDH / Na / PL / RALB / TBIL / TC / TG / TP / gamma-GTP: tissue Plasma

With `CC(=O)Oc1cc(C(C)C)c(OCCN(C)C)cc1C` [MOXISYLYTE] the TERMINAL_BW (3 h) was 205.7 g, the APTT (3 h) was 22.9 s and the Bas (3 h) was 0%. For the same compound, the Eos (3 h) was 1%, the Fbg (3 h) was 293 mg/dL and the Hb (3 h) was 13.5 g/dL. The Ht (3 h) was 39.8%, the Lym (3 h) was 75% and the MCH (3 h) was 21.3 pg. The MCHC (3 h) was 33.8%, the MCV (3 h) was 62.8 fL and the Mono (3 h) was 1.6%. For the same compound, the Neu (3 h) was 21.8%, the PT (3 h) was 15.9 s and the Plat (3 h) was 112.4 x10_4/uL. For the same compound, the RBC (3 h) was 634.4 x10_4/ul, the Ret (3 h) was 7.5% and the WBC (3 h) was 68.3 x10_2/uL. For the same compound, the KIDNEY_L (3 h) was 0.9 g, the KIDNEY_R (3 h) was 0.9 g and the KIDNEY_TOTAL (3 h) was 1.8 g. The LIVER (3 h) was 9.3 g, the A/G (3 h) was 1.3 and the ALP (3 h) was 1569.2 IU/L. The ALT (3 h) was 44 IU/L, the AST (3 h) was 81.4 IU/L and the BUN (3 h) was 13.2 mg/dL. The CRE (3 h) was 0.2 mg/dL, the Ca (3 h) was 10.5 mg/dL and the Cl (3 h) was 107.8 meq/L. For the same compound, the DBIL (3 h) was 0.004 mg/dL, the GLC (3 h) was 194 mg/dL and the IP (3 h) was 9.3 mg/dL. For the same compound, the K (3 h) was 4.2 meq/L, the LDH (3 h) was 315.8 IU/L and the Na (3 h) was 142 meq/L. It also gave a PL (3 h) of 128.4 mg/dL, an RALB (3 h) of 3.1 g/dL and a TBIL (3 h) of 0.03 mg/dL. It also gave a TC (3 h) of 75.8 mg/dL, a TG (3 h) of 28.8 mg/dL and a TP (3 h) of 5.4 g/dL. For the same compound, the gamma-GTP (3 h) was 1.2 IU/L, the TERMINAL_BW (6 h) was 206.6 g and the APTT (6 h) was 21.8 s. The Bas (6 h) was 0%, the Eos (6 h) was 1% and the Fbg (6 h) was 313.2 mg/dL. The Hb (6 h) was 13.3 g/dL, the Ht (6 h) was 38.6% and the Lym (6 h) was 72%. The MCH (6 h) was 20.8 pg, the MCHC (6 h) was 34.4% and the MCV (6 h) was 60.3 fL. It also gave a Mono (6 h) of 2.2%, a Neu (6 h) of 23.8% and a PT (6 h) of 15.8 s. It also gave a Plat (6 h) of 129.5 x10_4/uL, an RBC (6 h) of 641.2 x10_4/ul and a Ret (6 h) of 7.2%. The WBC (6 h) was 67.7 x10_2/uL, the KIDNEY_L (6 h) was 0.9 g and the KIDNEY_R (6 h) was 0.9 g. The KIDNEY_TOTAL (6 h) was 1.9 g, the LIVER (6 h) was 8.9 g and the A/G (6 h) was 1.2. The ALP (6 h) was 1449.6 IU/L, the ALT (6 h) was 39.4 IU/L and the AST (6 h) was 74.8 IU/L. The BUN (6 h) was 10.6 mg/dL, the CRE (6 h) was 0.2 mg/dL and the Ca (6 h) was 10.6 mg/dL. The Cl (6 h) was 108.4 meq/L, the DBIL (6 h) was 0.01 mg/dL and the GLC (6 h) was 181.8 mg/dL. The IP (6 h) was 9 mg/dL, the K (6 h) was 4.8 meq/L and the LDH (6 h) was 253.6 IU/L. The Na (6 h) was 140.8 meq/L, the PL (6 h) was 137.4 mg/dL and the RALB (6 h) was 3 g/dL. The TBIL (6 h) was 0.008 mg/dL, the TC (6 h) was 72.2 mg/dL and the TG (6 h) was 61.6 mg/dL. It also gave a TP (6 h) of 5.4 g/dL, a gamma-GTP (6 h) of 1 IU/L and a TERMINAL_BW (9 h) of 208.5 g. The APTT (9 h) was 21.5 s, the Bas (9 h) was 0% and the Eos (9 h) was 1%. It also gave a Fbg (9 h) of 308.2 mg/dL, a Hb (9 h) of 13.3 g/dL and a Ht (9 h) of 38.7%. The Lym (9 h) was 72%, the MCH (9 h) was 21.2 pg and the MCHC (9 h) was 34.5%. It also gave an MCV (9 h) of 61.4 fL, a Mono (9 h) of 2.4% and a Neu (9 h) of 23.8%. For the same compound, the PT (9 h) was 15.9 s, the Plat (9 h) was 118.6 x10_4/uL and the RBC (9 h) was 631.2 x10_4/ul. For the same compound, the Ret (9 h) was 8.4%, the WBC (9 h) was 93 x10_2/uL and the KIDNEY_L (9 h) was 1 g. It also gave a KIDNEY_R (9 h) of 1 g, a KIDNEY_TOTAL (9 h) of 1.9 g and an LIVER (9 h) of 8.5 g. For the same compound, the A/G (9 h) was 1.3, the ALP (9 h) was 1409.6 IU/L and the ALT (9 h) was 38.8 IU/L. For the same compound, the AST (9 h) was 70.2 IU/L, the BUN (9 h) was 11.4 mg/dL and the CRE (9 h) was 0.2 mg/dL. For the same compound, the Ca (9 h) was 10.5 mg/dL, the Cl (9 h) was 107.8 meq/L and the DBIL (9 h) was 0.008 mg/dL. It also gave a GLC (9 h) of 181.8 mg/dL, an IP (9 h) of 9.7 mg/dL and a K (9 h) of 4.3 meq/L. It also gave an LDH (9 h) of 240.2 IU/L, a Na (9 h) of 141.8 meq/L and a PL (9 h) of 135 mg/dL. For the same compound, the RALB (9 h) was 3.1 g/dL, the TBIL (9 h) was 0.026 mg/dL and the TC (9 h) was 75.6 mg/dL. The TG (9 h) was 47.4 mg/dL, the TP (9 h) was 5.6 g/dL and the gamma-GTP (9 h) was 1 IU/L. The TERMINAL_BW (24 h) was 221.8 g, the APTT (24 h) was 21.2 s and the Bas (24 h) was 0%. It also gave an Eos (24 h) of 0.8%, a Fbg (24 h) of 313.8 mg/dL and a Hb (24 h) of 13.5 g/dL. For the same compound, the Ht (24 h) was 38.6%, the Lym (24 h) was 79.6% and the MCH (24 h) was 21.3 pg. It also gave an MCHC (24 h) of 34.9%, an MCV (24 h) of 61.2 fL and a Mono (24 h) of 2%. The Neu (24 h) was 17.4%, the PT (24 h) was 15.8 s and the Plat (24 h) was 121.2 x10_4/uL. For the same compound, the RBC (24 h) was 632.2 x10_4/ul, the Ret (24 h) was 7.7% and the WBC (24 h) was 96.5 x10_2/uL. The KIDNEY_L (24 h) was 1 g, the KIDNEY_R (24 h) was 1 g and the KIDNEY_TOTAL (24 h) was 2 g. The LIVER (24 h) was 10.8 g, the A/G (24 h) was 1.2 and the ALP (24 h) was 1617.2 IU/L. For the same compound, the ALT (24 h) was 43.6 IU/L, the AST (24 h) was 70.8 IU/L and the BUN (24 h) was 17.2 mg/dL. For the same compound, the CRE (24 h) was 0.2 mg/dL, the Ca (24 h) was 11.3 mg/dL and the Cl (24 h) was 106 meq/L. The DBIL (24 h) was 0 mg/dL, the GLC (24 h) was 179.4 mg/dL and the IP (24 h) was 7.4 mg/dL. The K (24 h) was 4.3 meq/L, the LDH (24 h) was 247.2 IU/L and the Na (24 h) was 141.8 meq/L. It also gave a PL (24 h) of 163.2 mg/dL, an RALB (24 h) of 3.2 g/dL and a TBIL (24 h) of 0.006 mg/dL. The TC (24 h) was 81.6 mg/dL, the TG (24 h) was 178.8 mg/dL and the TP (24 h) was 5.9 g/dL. It also gave a gamma-GTP (24 h) of 1.4 IU/L.

From ChEMBL document CHEMBL3885861, “Open TG-GATES”
